{"source": "paper PMC7534897", "about": "(Bioorganic & Medicinal Chemistry Letters, 2020)", "key": {"EV-71A": {"system": "EV-71A", "conditions": "cited from earlier work"}, "EV-A71": {"system": "EV-A71", "conditions": "read-out: EC50, EV-A71; cited from earlier work"}, "[1]": {"system": "Enterovirus 71 (Tainin/4643/98 strain)", "assay": "Inhibition of EV-A71 replication in Vero 76 cells", "assay_type": "cell-based, Enterovirus A71", "conditions": "for EC50: Enterovirus A"}, "A1 adenosine receptor": {"target": "A1 adenosine receptor", "conditions": "cited from earlier work"}, "A3 adenosine receptor": {"target": "A3 adenosine receptor", "conditions": "read-out: Ki, A3 adenosine receptor; binds as an agonist; cited from earlier work"}, "[2]": {"system": "coxsackie virus B3, enterovirus 68 and poliovirus 1", "assay": "organism not typed", "assay_type": "cell-based", "conditions": "read-out: EC50 values, range over three viruses"}, "[3]": {"system": "Enterovirus 68 (US/KY/14–18953 strain)", "assay": "Inhibition of enterovirus 68 in RD cells", "assay_type": "cell-based", "conditions": "Enterovirus D, read-out: EC50/90 values against enterovirus 68, range"}}, "note": "Where two headings read alike, the source gives them in different places."}
{"smiles": "NC(=O)c1ncn([C@@H]2O[C@H](CO)[C@@H](O)[C@H]2O)n1", "note": "[Compound 5, ribavirin]", "values": [{"measurement": "IC50, EV-71A viral yield in infected cells", "setting": "EV-71A", "value": 65, "unit": "µg/mL"}, {"measurement": "IC50", "setting": "EV-71A; read-out: IC50, EV-71A viral yield in infected cells", "value": 266, "unit": "µM"}]}
{"smiles": "OC[C@H]1O[C@@H](n2cnc3c(NCc4ccccc4)ncnc32)[C@H](O)[C@@H]1O", "note": "[Compound 6, N ^6-benzyl-adenosine]", "values": [{"measurement": "EC50", "setting": "EV-A71", "value": 5, "unit": "µM"}]}
{"smiles": "CCOC(=O)c1ccc(OCCC2CCN(c3ccc(C)nn3)CC2)cc1", "note": "[Compound 8, Pirodavir, reference compound]", "values": [{"measurement": "EC50", "setting": "[1]; Vero 76, read-out: EC50 values of pirodavir, range (neutral red)", "value": "0.056 to 0.22", "unit": "µg/mL"}, {"measurement": "EC50", "setting": "[1]; Vero 76, read-out: EC50 values of pirodavir, range (visual)", "value": "0.036 to 0.32", "unit": "µg/mL"}]}
{"smiles": "NC(=O)c1ncn([C@H]2[C@H](O)[C@H](O)[C@]3(CO)C[C@H]23)n1", "note": "[Compound 9]", "values": [{"measurement": "Activity against EV-A71 in words", "setting": "[1]; at 50 µM, higher concentrations not tested", "value": "inactive"}]}
{"smiles": "OC[C@H]1O[C@@H](n2cnc3c(NC(C4CC4)C4CC4)ncnc32)[C@H](O)[C@@H]1O", "note": "[Compound 10]", "values": [{"measurement": "Activity against EV-A71 in words", "setting": "[1]", "value": "inactive"}]}
{"smiles": "OC[C@H]1O[C@@H](n2cnc3c(NC(C4CCC4)C4CCC4)ncnc32)[C@H](O)[C@@H]1O", "note": "[Compound 11]", "values": [{"measurement": "Activity against EV-A71 in words", "setting": "[1]", "value": "inactive"}, {"measurement": "Ki", "setting": "A1 adenosine receptor; read-out: Ki, A1 receptor", "value": "< 0.01", "unit": "µM"}]}
{"smiles": "OC[C@H]1O[C@@H](n2cnc3c(NC(C4CCC4)C4CCC4)nc(Cl)nc32)[C@H](O)[C@@H]1O", "note": "[Compound 12]", "values": [{"measurement": "Ki", "setting": "A1 adenosine receptor; read-out: Ki, A1 receptor", "value": "< 0.01", "unit": "µM"}]}
{"smiles": "OC[C@@]12C[C@@H]1[C@@H](n1cnc3c(NC(C4CC4)C4CC4)nc(Cl)nc31)[C@H](O)[C@@H]2O", "note": "[Compound 16]", "values": [{"measurement": "Activity against EV-A71 in words", "setting": "[1]", "value": "Intermediate potency"}]}
{"smiles": "CC(C)[C@@H](Nc1nc(Cl)nc2c1ncn2[C@H]1[C@H](O)[C@H](O)[C@]2(CO)C[C@H]12)C1CC1", "note": "[Compound 17]", "values": [{"measurement": "Ki", "setting": "A3 adenosine receptor", "value": 1.24, "unit": "µM"}, {"measurement": "Ki", "setting": "A1 adenosine receptor; read-out: Ki, A1 adenosine receptor, binds as an agonist", "value": 0.103, "unit": "µM"}, {"measurement": "EC50", "setting": "[2]", "value": "16 to 32", "unit": "µM"}]}
{"smiles": "CSc1nc(N[C@H](C(C)C)C2CC2)c2ncn([C@H]3[C@H](O)[C@H](O)[C@]4(CO)C[C@H]34)c2n1", "note": "[Compound 20, (1R,2R,3S,4R,5S)-4-(6-((1-Cyclopropyl-2-methylpropyl)amino)-2-(methylthio)-9H-purin-9-yl)-1-(hydroxymethyl)bicyclo[3.1.0]hexane-2,3-diol]", "values": [{"measurement": "EC50", "setting": "[1]; Vero 76, read-out: Visual EC50", "value": "> 100", "unit": "µM"}]}
{"smiles": "CC(C)[C@H](Nc1nc(Cl)nc2c1ncn2[C@H]1[C@H](O)[C@H](O)[C@]2(CO)C[C@H]12)C1CC1", "note": "[Compound 21]", "values": [{"measurement": "Activity against EV-A71 in words", "setting": "[1]", "value": "Intermediate potency"}]}
{"smiles": "CC[C@@H](Nc1nc(SC)nc2c1ccn2[C@H]1[C@H](O)[C@H](O)[C@]2(CO)C[C@H]12)C1CC1", "note": "[Compound 26]", "values": [{"measurement": "EC50", "setting": "[1]; Vero 76, read-out: Visual EC50", "value": 16, "unit": "µM"}]}
{"smiles": "CC[C@H](Nc1nc(Cl)nc2c1ncn2[C@H]1[C@H](O)[C@H](O)[C@]2(CO)C[C@H]12)C1CC1", "note": "[Compound 27]", "values": [{"measurement": "EC50", "setting": "[1]; Vero 76, read-out: Visual EC50", "value": 16, "unit": "µM"}]}
{"smiles": "OC[C@@]12C[C@@H]1[C@@H](n1cnc3c(NC(C4CCC4)C4CCC4)nc(Cl)nc31)[C@H](O)[C@@H]2O", "note": "[Compound 30]", "values": [{"measurement": "Activity against EV-A71 in words", "setting": "[1]", "value": "prevented inhibition"}]}
{"smiles": "O[C@@H]1[C@H](O)[C@@H]2C[C@@H]2[C@H]1n1cnc2c(NC(C3CC3)C3CC3)nc(Cl)nc21", "note": "[Compound 31]", "values": [{"measurement": "SI (selectivity index) at EV-A71", "setting": "[1]; visual and neutral red methods", "value": "≥ 10"}, {"measurement": "EC50", "setting": "[3]", "value": "8 to 16", "unit": "µM"}]}
{"smiles": "O[C@@H]1[C@H](O)[C@@H]2C[C@@H]2[C@H]1n1cnc2c(NC(C3CCC3)C3CCC3)nc(Cl)nc21", "note": "[Compound 42]", "values": [{"measurement": "EC50", "setting": "[1]; Vero 76, read-out: Visual EC50", "value": "> 16", "unit": "µM"}]}
{"smiles": "CCOC(=O)[C@@]12C[C@@H]1[C@@H](n1cnc3c(NC(C4CC4)C4CC4)nc(Cl)nc31)[C@H](O)[C@@H]2O", "note": "[Compound 44]", "values": [{"measurement": "Activity against EV-A71 in words", "setting": "[1]", "value": "inactive"}]}
{"smiles": "CC(C)[C@@H](Nc1nc(Cl)nc2c1ncn2[C@H]1[C@H](O)[C@H](O)[C@]2(CF)C[C@H]12)C1CC1", "note": "[Compound 48, (1S,2R,3S,4R,5S)-4-(2-Chloro-6-((1-cyclopropyl-2-methylpropyl)amino)-9H-purin-9-yl)-1-(fluoromethyl)bicyclo[3.1.0]hexane-2,3-diol]", "values": [{"measurement": "Activity against EV-A71 in words", "setting": "[1]", "value": "intermediate potency"}, {"measurement": "EC50", "setting": "[1]; Vero 76, read-out: Visual EC50", "value": 3.6, "unit": "µM"}, {"measurement": "EC50", "setting": "[3]", "value": "8 to 16", "unit": "µM"}]}
{"smiles": "CC(C)[C@@H](Nc1nc(Cl)nc2c1ncn2[C@H]1[C@H](O)[C@H](O)[C@]2(CCl)C[C@H]12)C1CC1", "note": "[Compound 49, (1S,2R,3S,4R,5S)-4-(2-Chloro-6-((1-cyclopropyl-2-methylpropyl)amino)-9H-purin-9-yl)-1-(chloromethyl)bicyclo[3.1.0]hexane-2,3-diol]", "values": [{"measurement": "Activity against EV-A71 in words", "setting": "[1]", "value": "intermediate potency"}]}
{"smiles": "CSC[C@@]12C[C@@H]1[C@@H](n1cnc3c(N[C@H](C(C)C)C4CC4)nc(Cl)nc31)[C@H](O)[C@@H]2O", "note": "[Compound 50, (1S,2R,3S,4R,5S)-4-(2-Chloro-6-((1-cyclopropyl-2-methylpropyl)amino)-9H-purin-9-yl)-1-((methylthio)methyl)bicyclo[3.1.0]hexane-2,3-diol]", "values": [{"measurement": "Activity against EV-A71 in words", "setting": "[1]", "value": "reduced inhibition"}]}
{"smiles": "CC(C)[C@@H](Nc1nc(Cl)nc2c1ncn2[C@H]1[C@H](O)[C@H](O)[C@]2(CN=[N+]=[N-])C[C@H]12)C1CC1", "note": "[Compound 51, (1R,2R,3S,4R,5S)-1-(Azidomethyl)-4-(2-chloro-6-((1-cyclopropyl-2-methylpropyl)amino)-9H-purin-9-yl)bicyclo[3.1.0]hexane-2,3-diol]", "values": [{"measurement": "Activity against EV-A71 in words", "setting": "[1]", "value": "intermediate potency"}]}
{"smiles": "CC(C)[C@@H](Nc1nc(Cl)nc2c1ncn2[C@H]1[C@H](O)[C@H](O)[C@]2(CN)C[C@H]12)C1CC1", "note": "[Compound 52, (1R,2R,3S,4R,5S)-1-(Aminomethyl)-4-(2-chloro-6-((1-cyclopropyl-2-methylpropyl)amino)-9H-purin-9-yl)bicyclo[3.1.0]hexane-2,3-diol]", "values": [{"measurement": "Activity against EV-A71 in words", "setting": "[1]", "value": "reduced inhibition"}]}
